Results as given in ChEMBL document CHEMBL1201862, “PubChem BioAssay data set” (2004).
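Briefly, cells in 96-well plates were exposed to five compound concentrations for 48 h, and endpoints were estimated by linear interpolation. GI50 is the concentration that inhibits growth by half.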 Activity calls are given as the source filed them. No stated cut-off is given here; in the data, active = GI50 up to about 1.1 µM and inactive = higher.

Assays:
Test in all cases: growth of human tumour cells (NCI), 48 h
BT-549 = system: BT-549
HCT-15 = system: HCT-15
HOP-92 = system: HOP-92
HT-29 = system: HT-29
M14 = system: M14
MDA-MB-435 = system: MDA-MB-435
MOLT-4 = system: MOLT-4
NCI-H23 = system: NCI-H23
NCI-H460 = system: NCI-H460
OVCAR-3 = system: OVCAR-3
OVCAR-5 = system: OVCAR-5
OVCAR-8 = system: OVCAR-8
SF-295 = system: SF-295
SK-MEL-28 = system: SK-MEL-28
SK-MEL-2 = system: SK-MEL-2
SK-MEL-5 = system: SK-MEL-5
SK-OV-3 = system: SK-OV-3
T47D = system: T47D
U-251 = system: U-251
UACC-62 = system: UACC-62

`O=C1C(Cl)=CC2(C=C1Cl)CCNC1=C2C(=O)c2nc[nH]c2C1=O` was tested, and the GI50 (BT-549) was 26.3 µM (inactive), the GI50 (HCT-15) was 46 µM and the GI50 (HOP-92) was 42.4 µM (inactive). For the same compound, the GI50 (HT-29) was 29.6 µM (inactive), the GI50 (M14) was 39 µM (inactive) and the GI50 (MDA-MB-435) was 18.2 µM (inactive). For the same compound, the GI50 (MOLT-4) was 26.9 µM (inactive), the GI50 (NCI-H23) was 27.2 µM (inactive) and the GI50 (NCI-H460) was 40.3 µM (inactive). For the same compound, the GI50 (OVCAR-3) was 32.3 µM (inactive), the GI50 (OVCAR-5) was > 100 µM (inactive) and the GI50 (OVCAR-8) was 32.9 µM (inactive). The GI50 (SF-295) was > 100 µM (inactive), the GI50 (SK-MEL-28) was 33.7 µM (inactive) and the GI50 (SK-MEL-2) was 17.3 µM (inactive). For the same compound, the GI50 (SK-MEL-5) was 16.6 µM (inactive), the GI50 (SK-OV-3) was > 100 µM (inactive) and the GI50 (T47D) was 99.8 µM (inactive). For the same compound, the GI50 (U-251) was 26.5 µM (inactive) and the GI50 (UACC-62) was 18.3 µM (inactive).

In the case of `COc1ccc([C@@]23Oc4cc(OC)cc(OC)c4[C@]2(O)[C@H](O)[C@H](C(N)=O)[C@H]3c2ccccc2)cc1` [DIDESMETHYLROCAGLAMIDE], the GI50 (BT-549) is reported as < 0.0112 µM (active), the GI50 (HCT-15) is reported as less than 0.0142 µM and the GI50 (HOP-92) is reported as < 0.01 µM (active). For the same compound, the GI50 (HT-29) was < 0.01 µM (active), the GI50 (M14) was < 0.01 µM (active) and the GI50 (MDA-MB-435) was < 0.01 µM (active). The GI50 (MOLT-4) was < 0.01 µM (active), the GI50 (NCI-H23) was < 0.01 µM (active) and the GI50 (NCI-H460) was < 0.01 µM (active). The GI50 (OVCAR-3) was < 0.01 µM (active), the GI50 (OVCAR-5) was 0.0102 µM (active) and the GI50 (OVCAR-8) was < 0.01 µM (active). The GI50 (SF-295) was < 0.01 µM (active), the GI50 (SK-MEL-28) was < 0.01 µM (active) and the GI50 (SK-MEL-2) was < 0.0106 µM (active). The GI50 (SK-MEL-5) was < 0.01 µM (active), the GI50 (SK-OV-3) was < 0.01 µM (active) and the GI50 (T47D) was < 0.01 µM (active). The GI50 (U-251) was < 0.01 µM (active) and the GI50 (UACC-62) was < 0.01 µM (active).
